# Test results as given in ChEMBL document CHEMBL1136837, “Unified QSAR approach to antimicrobials. 4. Multi-target QSAR modeling and comparative multi-distance study of the giant components of antiviral drug-drug complex networks” (Bioorg Med Chem, 2009).
# Starred links: 1 amine or outer side, 2 acyl side, 3 side chain; linkers in the order of their positions; H or OH if unused. Non-standard residues stand in square brackets, D forms with d. Residues, ends and D or L forms follow the SMILES beside them. *: point of attachment. Hyp(2-Ph-quinolin-4-yl) = O=C(O)[C@@H]1C[C@@H](Oc2cc(-c3ccccc3)nc3ccccc23)CN1; Hyp(quinolin-4-yl) = O=C(O)[C@@H]1C[C@@H](Oc2ccnc3ccccc23)CN1; Acca(2-Et,1R,2R) = CC[C@@H]1C[C@]1(N)C(=O)O; NH(1S-phenylpropyl) = CC[C@H](N*)c1ccccc1; NH(1R-phenylethyl) = C[C@@H](N*)c1ccccc1; Dip = N[C@H](C(=O)O)C(c1ccccc1)c1ccccc1; CH2(1-naphthyl) = c1ccc2c(C*)cccc2c1; Hyp = O=C(O)[C@@H]1C[C@@H](O)CN1; X8 = CCCN(N*)C(=O)NN(C)c1ccccc1; azaNva = CCCN(N[*:1])C(=O)[*:2]; Cha = N[C@@H](CC1CCCCC1)C(=O)O; X2 = C[C@H](N*)c1cccc2ccccc12; Chg = N[C@H](C(=O)O)C1CCCCC1; NH(CH2)3Ph = c1ccc(CCCN*)cc1; NHPhenethyl = c1ccc(CCN*)cc1; X3 = C[C@H](N*)c1ccc(Br)cc1; X5 = c1ccc2c(c1)CC[C@@H]2N*; X9 = C[C@H](N*)c1nnn[nH]1; X6 = c1ccc2c(c1)CC(N*)C2; X7 = C[C@H](N*)C1CCCCC1; Ac3c = NC1(C(=O)O)CC1; NHBn = c1ccc(CN*)cc1; X1 = Clc1ccccc1CCN*; X4 = C1CCC(CCN*)CC1; Bn = c1ccc(C*)cc1
# System: Hepatitis C virus
# Experiment: Antiviral activity against Hepatitis C virus
# Assay type: functional, organism-based, Hepacivirus hominis
# Conditions: not given
row,IC50 [nM],SMILES
1,620,O=C(O)[C@H](Cc1ccccc1)N(Cc1ccc(-c2nccs2)cc1)C(=O)c1ccc(Cl)cc1Cl (stereo in doubt; form 1)
2,5700,O=C(O)[C@H](Cc1ccccc1)N(Cc1ccc(-c2nccs2)cc1)C(=O)c1ccc(Cl)cc1Cl (stereo in doubt; form 2)

# Same assay, conditions: Hepatitis C virus
row,SMILES,IC50 [nM]
1,O=C(O)[C@H](Cc1ccccc1)N(Cc1cccc(Br)c1)C(=O)c1ccc(Cl)cc1Cl,3500
2,O=C(O)[C@H](Cc1ccccc1)N(Cc1cccc([N+](=O)[O-])c1)C(=O)c1ccc(Cl)cc1Cl,700
3,N#Cc1ccccc1CN(C(=O)c1ccc(Cl)cc1Cl)[C@@H](Cc1ccccc1)C(=O)O,6000
4,N#Cc1ccc(CN(C(=O)c2ccc(Cl)cc2Cl)[C@@H](Cc2ccccc2)C(=O)O)cc1,8000
5,O=C(O)[C@H](Cc1ccccc1)N(Cc1cccnc1)C(=O)c1ccc(Cl)cc1Cl,11000
6,C[C@@]1(O)[C@H](O)[C@@H](CO)O[C@H]1n1ncc2c(N)ncnc21,100000
7,Cc1cn([C@@H]2O[C@H](CO)[C@@H](O)[C@@]2(C)O)c2ncnc(N)c12,34000
8,C[C@@]1(O)[C@H](O)[C@@H](CO)O[C@H]1n1ccc2c(N)nc(F)nc21,100000
9,CC(=O)N[C@@H](CC(=O)O)C(=O)N[C@@H](CCC(=O)O)C(=O)N[C@H](C(=O)N[C@@H](CCC(=O)O)C(=O)N[C@@H](CC1CCCCC1)C(=O)N[C@@H](CS)C(=O)NCc1ccccc1)C(c1ccccc1)c1ccccc1 (Ac-DE[Dip]E[Cha]C-NHBn),250
10,CC(=O)N[C@@H](CC(=O)O)C(=O)N[C@@H](CCC(=O)O)C(=O)N[C@H](C(=O)N[C@@H](CCC(=O)O)C(=O)N[C@@H](CC1CCCCC1)C(=O)N[C@@H](CS)C(=O)NCCc1ccccc1)C(c1ccccc1)c1ccccc1 (Ac-DE[Dip]E[Cha]C-NHPhenethyl),7
11,CC(=O)N[C@@H](CC(=O)O)C(=O)N[C@@H](CCC(=O)O)C(=O)N[C@H](C(=O)N[C@@H](CCC(=O)O)C(=O)N[C@@H](CC1CCCCC1)C(=O)N[C@@H](CS)C(=O)NCCc1ccccc1Cl)C(c1ccccc1)c1ccccc1 (Ac-DE[Dip]E[Cha]C-X1),2
12,CC(=O)N[C@@H](CC(=O)O)C(=O)N[C@@H](CCC(=O)O)C(=O)N[C@H](C(=O)N[C@@H](CCC(=O)O)C(=O)N[C@@H](CC1CCCCC1)C(=O)N[C@@H](CS)C(=O)NCCC1CCCCC1)C(c1ccccc1)c1ccccc1 (Ac-DE[Dip]E[Cha]C-X4),1540
13,CC(=O)N[C@@H](CC(=O)O)C(=O)N[C@@H](CCC(=O)O)C(=O)N[C@H](C(=O)N[C@@H](CCC(=O)O)C(=O)N[C@@H](CC1CCCCC1)C(=O)N[C@@H](CS)C(=O)NCCCc1ccccc1)C(c1ccccc1)c1ccccc1 (Ac-DE[Dip]E[Cha]C-{NH(CH2)3Ph}),210
14,CCCN(NC(=O)[C@@H]1C[C@@H](OCc2ccccc2)CN1C(=O)[C@@H](NC(=O)[C@@H](NC(=O)[C@@H](CCC(=O)O)NC(=O)[C@H](CC(=O)O)NC(C)=O)[C@@H](C)CC)C(C)C)C(=O)NN(C)c1ccccc1 (Ac-D[dE]IV[Hyp](Bn)-X8),480
15,CCCN(NC(=O)[C@@H]1C[C@@H](OCc2ccccc2)CN1C(=O)[C@@H](NC(=O)[C@@H](NC(=O)[C@@H](CCC(=O)O)NC(=O)[C@H](CC(=O)O)NC(C)=O)[C@@H](C)CC)C(C)C)C(=O)N[C@@H](C)c1ccc(Br)cc1 (Ac-D[dE]IV[Hyp](Bn)[azaNva]-X3),72
16,CCCN(NC(=O)[C@@H]1C[C@@H](OCc2ccccc2)CN1C(=O)[C@@H](NC(=O)[C@@H](NC(=O)[C@@H](CCC(=O)O)NC(=O)[C@H](CC(=O)O)NC(C)=O)[C@@H](C)CC)C(C)C)C(=O)N[C@@H](C)c1nnn[nH]1 (Ac-D[dE]IV[Hyp](Bn)[azaNva]-X9),860
17,CCCN(NC(=O)[C@@H]1C[C@@H](OCc2ccccc2)CN1C(=O)[C@@H](NC(=O)[C@@H](NC(=O)[C@@H](CCC(=O)O)NC(=O)[C@H](CC(=O)O)NC(C)=O)[C@@H](C)CC)C(C)C)C(=O)N[C@H](C)c1ccccc1 (Ac-D[dE]IV[Hyp](Bn)[azaNva]-{NH(1R-phenylethyl)}),4300
18,CCCN(NC(=O)[C@@H]1C[C@@H](OCc2ccccc2)CN1C(=O)[C@@H](NC(=O)[C@@H](NC(=O)[C@@H](CCC(=O)O)NC(=O)[C@H](CC(=O)O)NC(C)=O)[C@@H](C)CC)C(C)C)C(=O)N[C@@H](CC)c1ccccc1 (Ac-D[dE]IV[Hyp](Bn)[azaNva]-{NH(1S-phenylpropyl)}),440
19,"CCCC1(CC(=O)O)OCCc2c1[nH]c1c(F)ccc(C#N)c21 (single isomer, unassigned)",5200

# The remaining lines, values ahead:
row,IC50 [nM],SMILES
1,8600,O=C(O)[C@H](Cc1ccccc1)N(Cc1ccc(-c2cc3ccccc3o2)s1)C(=O)c1ccc(Cl)cc1Cl
2,3.6,COc1ccc2c(O[C@@H]3C[C@H]4C(=O)N[C@]5(C(=O)O)C[C@H]5/C=C\CCCCC[C@H](NC(=O)OC5CCCC5)C(=O)N4C3)cc(-n3cccc3)nc2c1
3,4.7,COc1ccc2c(O[C@@H]3C[C@H]4C(=O)N[C@]5(C(=O)O)C[C@H]5/C=C\CCCCC[C@H](NC(=O)OC(C)(C)C)C(=O)N4C3)cc(-n3ccnc3)nc2c1
4,2.5,CNc1nc(-c2cc(O[C@@H]3C[C@H]4C(=O)N[C@]5(C(=O)O)C[C@H]5/C=C\CCCCC[C@H](NC(=O)OC5CCCC5)C(=O)N4C3)c3ccc(OC)cc3n2)cs1
5,5.1,COc1ccc2c(O[C@@H]3C[C@H]4C(=O)N[C@]5(C(=O)O)C[C@H]5/C=C\CCCCC[C@H](NC(=O)OC(C)(C)C)C(=O)N4C3)cc(-n3cccc3)nc2c1
6,3.5,COc1ccc2c(O[C@@H]3C[C@H]4C(=O)N[C@]5(C(=O)O)C[C@H]5/C=C\CCCCC[C@H](NC(=O)OC5CCCC5)C(=O)N4C3)cc(-c3csc(N)n3)nc2c1
7,2.9,CCNc1nc(-c2cc(O[C@@H]3C[C@H]4C(=O)N[C@]5(C(=O)O)C[C@H]5/C=C\CCCCC[C@H](NC(=O)OC5CCCC5)C(=O)N4C3)c3ccc(OC)cc3n2)cs1
8,4.8,COc1ccc2c(O[C@@H]3C[C@H]4C(=O)N[C@]5(C(=O)O)C[C@H]5/C=C\CCCCC[C@H](NC(=O)OC(C)(C)C)C(=O)N4C3)cc(-c3csc(NC(C)=O)n3)nc2c1
9,2.5,COc1ccc2c(O[C@@H]3C[C@H]4C(=O)N[C@]5(C(=O)O)C[C@H]5/C=C\CCCCC[C@H](NC(=O)OC5CCCC5)C(=O)N4C3)cc(-c3csc(NC(C)=O)n3)nc2c1
10,1.4,COc1ccc2c(O[C@@H]3C[C@H]4C(=O)N[C@]5(C(=O)O)C[C@H]5/C=C\CCCCC[C@H](NC(=O)N[C@H](C)C(C)(C)C)C(=O)N4C3)cc(-c3csc(NC(C)=O)n3)nc2c1
11,3,COc1ccc2c(O[C@@H]3C[C@H]4C(=O)N[C@]5(C(=O)O)C[C@H]5/C=C\CCCCC[C@H](NC(=O)OC(C)(C)C)C(=O)N4C3)cc(-n3ccc(C)n3)nc2c1
12,2.6,COc1ccc2c(O[C@@H]3C[C@H]4C(=O)N[C@]5(C(=O)O)C[C@H]5/C=C\CCCCC[C@H](NC(=O)OC5CCC5)C(=O)N4C3)cc(-c3csc(NC(C)=O)n3)nc2c1
13,12,COc1ccc2c(O[C@@H]3C[C@H]4C(=O)N[C@]5(C(=O)O)C[C@H]5/C=C\CCCCC[C@H](NC(=O)OC(C)(C)C)C(=O)N4C3)cc(-c3nnc(C)o3)nc2c1
14,5.5,COc1ccc2c(O[C@@H]3C[C@H]4C(=O)N[C@]5(C(=O)O)C[C@H]5/C=C\CCCCC[C@H](NC(=O)OC(C)(C)C)C(=O)N4C3)cc(-c3csc(N)n3)nc2c1
15,2.2,COc1ccc2c(O[C@@H]3C[C@H]4C(=O)N[C@]5(C(=O)O)C[C@H]5/C=C\CCCCC[C@H](NC(=O)OC5CCCC5)C(=O)N4C3)cc(-n3cccn3)nc2c1
16,2.2,COc1ccc2c(O[C@@H]3C[C@H]4C(=O)N[C@]5(C(=O)O)C[C@H]5/C=C\CCCCC[C@H](NC(=O)OC5CCCC5)C(=O)N4C3)cc(-n3ccc(C)n3)nc2c1
17,14,COc1ccc2c(O[C@@H]3C[C@H]4C(=O)N[C@]5(C(=O)O)C[C@H]5/C=C\CCCCC[C@H](NC(=O)OC(C)(C)C)C(=O)N4C3)cc(-n3cnc(C)c3)nc2c1
18,6.4,CNc1nc(-c2cc(O[C@@H]3C[C@H]4C(=O)N[C@]5(C(=O)O)C[C@H]5/C=C\CCCCC[C@H](NC(=O)OC(C)(C)C)C(=O)N4C3)c3ccc(OC)cc3n2)cs1
19,1700,CC(=O)N[C@@H](CC(=O)O)C(=O)N[C@@H](CCC(=O)O)C(=O)N[C@H](C(=O)N[C@@H](CCC(=O)O)C(=O)N[C@@H](CC1CCCCC1)C(=O)N[C@@H](CS)C(=O)NC1Cc2ccccc2C1)C(c1ccccc1)c1ccccc1 (Ac-DE[Dip]E[Cha]C-X6)
20,490,CCCN(NC(=O)[C@@H]1C[C@@H](OCc2ccccc2)CN1C(=O)[C@@H](NC(=O)[C@@H](NC(=O)[C@@H](CCC(=O)O)NC(=O)[C@H](CC(=O)O)NC(C)=O)[C@@H](C)CC)C(C)C)C(=O)N[C@@H](C)c1cccc2ccccc12 (Ac-D[dE]IV[Hyp](Bn)[azaNva]-X2)
21,100,CCCN(NC(=O)[C@@H]1C[C@@H](OCc2ccccc2)CN1C(=O)[C@@H](NC(=O)[C@@H](NC(=O)[C@@H](CCC(=O)O)NC(=O)[C@H](CC(=O)O)NC(C)=O)[C@@H](C)CC)C(C)C)C(=O)N[C@H]1CCc2ccccc21 (Ac-D[dE]IV[Hyp](Bn)[azaNva]-X5)
22,420,CCCN(NC(=O)[C@@H]1C[C@@H](OCc2ccccc2)CN1C(=O)[C@@H](NC(=O)[C@@H](NC(=O)[C@@H](CCC(=O)O)NC(=O)[C@H](CC(=O)O)NC(C)=O)[C@@H](C)CC)C(C)C)C(=O)N[C@@H](C)C1CCCCC1 (Ac-D[dE]IV[Hyp](Bn)[azaNva]-X7)
23,370,CC(=O)N[C@H](C(=O)N[C@H](C(=O)N1C[C@H](Oc2cc(-c3ccccc3)nc3ccccc23)C[C@H]1C(=O)NC1(C(=O)O)CC1)C(C)C)C1CCCCC1 (Ac-[Chg]V[Hyp(2-Ph-quinolin-4-yl)][Ac3c]-OH)
24,13,"CC[C@@H]1C[C@]1(NC(=O)[C@@H]1C[C@@H](Oc2cc(-c3ccccc3)nc3ccccc23)CN1C(=O)[C@@H](NC(=O)[C@@H](NC(C)=O)C1CCCCC1)C(C)C)C(=O)O (Ac-[Chg]V[Hyp(2-Ph-quinolin-4-yl)][Acca(2-Et,1R,2R)]-OH)"
25,2200,CC(=O)N[C@H](C(=O)N[C@H](C(=O)N1C[C@H](Oc2ccnc3ccccc23)C[C@H]1C(=O)NC1(C(=O)O)CC1)C(C)C)C1CCCCC1 (Ac-[Chg]V[Hyp(quinolin-4-yl)][Ac3c]-OH)
26,4000,CC(=O)N[C@H](C(=O)N[C@H](C(=O)N1C[C@H](OCc2cccc3ccccc23)C[C@H]1C(=O)NC1(C(=O)O)CC1)C(C)C)C1CCCCC1 (Ac-[Chg]V[Hyp](CH2(1-naphthyl))[Ac3c]-OH)
